Here are results for 15 compounds from ChEMBL document CHEMBL5523703, “Modulators for palmitoylation of proteins and small molecules” (Eur J Med Chem, 2024).

Where a name gives a salt, the structure may show the parent alone.

The target in experiment [1] is Tyrosine-protein kinase Lck (Homo sapiens, UniProt P06239). The experiment in a line: Inhibition of N-terminal human recombinant Lck expressed in baculovirus infected in Sf9 cells.
Experiment [2] has as its target Non-structural protein 4b (Hepacivirus hominis, UniProt F5B4I0). The experiment in a line: Inhibition of Hepatitis C virus genotype 1a NS4B.
Experiment [3] concerns the target T1, Carnitine O-palmitoyltransferase 1, muscle isoform (Homo sapiens, UniProt Q92523).
T1 sequence (Q92523 whole entry): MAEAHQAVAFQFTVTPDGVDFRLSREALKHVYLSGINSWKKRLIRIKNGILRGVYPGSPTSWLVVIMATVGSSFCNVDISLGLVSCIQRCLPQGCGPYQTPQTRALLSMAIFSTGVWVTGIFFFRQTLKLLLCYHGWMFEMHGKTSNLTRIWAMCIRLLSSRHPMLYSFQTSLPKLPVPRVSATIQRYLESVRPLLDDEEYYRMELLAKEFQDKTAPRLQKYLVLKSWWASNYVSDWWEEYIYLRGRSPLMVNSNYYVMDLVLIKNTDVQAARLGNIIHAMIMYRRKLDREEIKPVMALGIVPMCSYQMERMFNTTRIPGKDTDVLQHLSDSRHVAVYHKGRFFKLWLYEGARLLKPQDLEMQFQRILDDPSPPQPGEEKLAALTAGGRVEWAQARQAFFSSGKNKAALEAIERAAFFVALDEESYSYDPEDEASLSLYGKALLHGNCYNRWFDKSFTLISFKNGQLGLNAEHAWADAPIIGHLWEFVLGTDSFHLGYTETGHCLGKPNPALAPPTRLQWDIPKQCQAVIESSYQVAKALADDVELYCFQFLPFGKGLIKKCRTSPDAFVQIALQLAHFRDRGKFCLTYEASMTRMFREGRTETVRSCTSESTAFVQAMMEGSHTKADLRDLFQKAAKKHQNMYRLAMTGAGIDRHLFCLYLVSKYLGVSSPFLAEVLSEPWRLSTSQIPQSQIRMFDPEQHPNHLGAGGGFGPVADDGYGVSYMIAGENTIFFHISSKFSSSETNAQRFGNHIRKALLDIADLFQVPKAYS
The experiment in a line: Inhibition of CPT1B (unknown origin).

A further experiment concerns HCC4006. The experiment in a line: cells. The note with it: Homo sapiens, HCC4006, 24 h.
Experiment [4] deals with Palmitoyltransferase ZDHHC3 (Homo sapiens, UniProt Q9NYG2). Kind of experiment: Inhibition of ZDHHC3 (unknown origin).
Experiment [5] addresses Palmitoyltransferase ZDHHC7 (Homo sapiens, UniProt Q9NXF8). Kind of experiment: Inhibition of ZDHHC7 (unknown origin).
For experiment [6], the target named is T2, Carnitine O-palmitoyltransferase 1, liver isoform (Homo sapiens, UniProt P50416).
T2 sequence (P50416 whole entry): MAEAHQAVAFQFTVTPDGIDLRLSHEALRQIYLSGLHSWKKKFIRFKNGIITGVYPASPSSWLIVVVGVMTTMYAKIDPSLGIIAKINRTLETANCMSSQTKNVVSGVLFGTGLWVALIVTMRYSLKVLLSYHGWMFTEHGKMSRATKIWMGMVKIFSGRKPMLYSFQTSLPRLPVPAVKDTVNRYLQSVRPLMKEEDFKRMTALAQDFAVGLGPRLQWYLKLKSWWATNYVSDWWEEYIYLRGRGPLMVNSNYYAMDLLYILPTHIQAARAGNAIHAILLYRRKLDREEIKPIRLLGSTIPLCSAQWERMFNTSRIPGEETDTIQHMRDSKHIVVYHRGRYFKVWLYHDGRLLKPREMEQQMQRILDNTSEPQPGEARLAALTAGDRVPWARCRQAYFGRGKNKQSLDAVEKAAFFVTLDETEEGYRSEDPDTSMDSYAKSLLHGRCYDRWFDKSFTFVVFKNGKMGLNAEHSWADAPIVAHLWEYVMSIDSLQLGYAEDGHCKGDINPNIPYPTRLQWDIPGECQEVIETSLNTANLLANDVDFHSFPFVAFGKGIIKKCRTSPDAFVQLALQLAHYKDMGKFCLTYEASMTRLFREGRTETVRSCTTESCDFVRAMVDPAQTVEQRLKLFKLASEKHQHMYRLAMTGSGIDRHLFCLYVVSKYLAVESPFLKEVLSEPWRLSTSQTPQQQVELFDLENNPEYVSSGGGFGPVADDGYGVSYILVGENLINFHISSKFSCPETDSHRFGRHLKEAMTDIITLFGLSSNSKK
Kind of experiment: Inhibition of human CPT1.

Experiment [7] concerns the target Carnitine O-palmitoyltransferase 2, mitochondrial (Homo sapiens, UniProt P23786). The experiment in a line: Inhibition of human CPT2.
In experiment [8] the target is Serine palmitoyltransferase small subunit B (Homo sapiens, UniProt Q8NFR3). Kind of experiment: Inhibition of SPTSSB (unknown origin) expressed in HEK293T cells. It counts as cell-based.
For experiment [9], the target named is Protein-cysteine N-palmitoyltransferase HHAT (Homo sapiens, UniProt Q5VTY9). The experiment in a line: Binding affinity to His-tagged HHAT (unknown origin) transfected in HEK293FT cells assessed as inhibition constant. The format is cell-based.
The target of experiment [10] is Transcriptional enhancer factor TEF-1 (Homo sapiens, UniProt P28347). Kind of experiment: Inhibition of N-terminal His-tagged human TEAD1 expressed in Escherichia coli BL21 (DE3) (209 to 424 residues) by affinity chromatography analysis.
Experiment [11] can be described thus: Inhibition of Candida albicans serine palmitoyltransferase.
Experiment [12] deals with Carnitine O-palmitoyltransferase 1, liver isoform (Homo sapiens) (UniProt P50416). The experiment in a line: Inhibition of CPT1 (unknown origin) at 10 uM relative to control.
Experiment [13] concerns the target T1, Carnitine O-palmitoyltransferase 1, muscle isoform. Kind of experiment: Inhibition of CPT1B (unknown origin) in KB cells. It counts as cell-based.
Experiment [14] addresses T3, Carnitine O-palmitoyltransferase 1, liver isoform (Rattus norvegicus, UniProt P32198).
T3 sequence (P32198 whole entry): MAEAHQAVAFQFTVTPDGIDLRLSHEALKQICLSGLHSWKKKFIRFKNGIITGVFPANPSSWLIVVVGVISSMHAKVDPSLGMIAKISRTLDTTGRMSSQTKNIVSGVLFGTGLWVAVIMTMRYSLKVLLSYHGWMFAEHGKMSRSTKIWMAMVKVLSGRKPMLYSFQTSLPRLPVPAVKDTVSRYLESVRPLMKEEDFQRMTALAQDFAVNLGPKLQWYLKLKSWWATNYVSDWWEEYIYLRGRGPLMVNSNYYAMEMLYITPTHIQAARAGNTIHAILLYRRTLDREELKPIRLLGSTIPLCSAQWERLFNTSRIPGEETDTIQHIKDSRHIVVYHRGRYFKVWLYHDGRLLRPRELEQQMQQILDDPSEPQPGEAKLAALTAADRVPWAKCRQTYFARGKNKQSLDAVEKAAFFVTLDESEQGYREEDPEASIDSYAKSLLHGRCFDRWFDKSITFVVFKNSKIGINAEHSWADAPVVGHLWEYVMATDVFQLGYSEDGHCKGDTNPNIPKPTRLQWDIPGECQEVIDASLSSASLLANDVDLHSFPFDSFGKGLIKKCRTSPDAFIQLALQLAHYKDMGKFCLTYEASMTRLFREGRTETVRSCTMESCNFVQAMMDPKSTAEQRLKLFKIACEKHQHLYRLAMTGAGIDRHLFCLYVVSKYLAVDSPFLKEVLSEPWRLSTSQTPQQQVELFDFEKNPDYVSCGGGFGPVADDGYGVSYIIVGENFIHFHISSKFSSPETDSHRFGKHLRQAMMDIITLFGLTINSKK
Kind of experiment: Inhibition of rat hepatocytes CPT1A. It counts as cell-based, Hepatocyte.

Experiment [15] deals with T2, Carnitine O-palmitoyltransferase 1, liver isoform. Kind of experiment: Inhibition of CPT1 (unknown origin).
Experiment [16] has the same target. Kind of experiment: Binding affinity to CPT1 (unknown origin) assessed as inhibition constant.
The subject of experiment [17] is NCI-H226. Kind of experiment: Antitumor activity against human NCI-H226 cells xenografted in CDX mouse model assessed as reduction in tumor growth at 30 mg/kg relative to control. Further details: scale not given: the % may be the effect or the level left. It counts as functional. In general terms: A xenograft is tissue or cells of one species grown in another, often human tumour cells in immunodeficient mice.

Experiment [18] concerns NCI-H226. Kind of experiment: Antitumor activity against human NCI-H226 cells xenografted in CDX mouse model assessed as reduction in tumor growth at 75 mg/kg relative to control. The format is functional. Further details: scale not given: the % may be the effect or the level left.

What is called IC50 is the concentration at which inhibition is half-maximal. Broadly, the Ki is the dissociation constant of the complex between target and ligand, obtained from inhibition or displacement. The term inhibition denotes the drop in the measured response relative to a control, in per cent.

Chain of Transcriptional enhancer factor TEF-1 (P28347 whole entry, the tested form may be a part): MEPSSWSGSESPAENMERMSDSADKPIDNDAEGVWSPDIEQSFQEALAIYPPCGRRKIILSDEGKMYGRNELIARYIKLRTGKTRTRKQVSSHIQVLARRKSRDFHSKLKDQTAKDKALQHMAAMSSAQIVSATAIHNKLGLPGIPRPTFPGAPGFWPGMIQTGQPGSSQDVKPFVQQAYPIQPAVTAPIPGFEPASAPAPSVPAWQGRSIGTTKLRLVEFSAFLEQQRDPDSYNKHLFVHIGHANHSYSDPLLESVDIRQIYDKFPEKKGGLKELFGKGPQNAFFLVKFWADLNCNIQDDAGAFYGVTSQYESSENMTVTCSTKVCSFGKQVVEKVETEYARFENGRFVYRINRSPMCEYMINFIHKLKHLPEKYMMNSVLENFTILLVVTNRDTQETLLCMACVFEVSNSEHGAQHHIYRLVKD
Chain of Tyrosine-protein kinase Lck (P06239 whole entry): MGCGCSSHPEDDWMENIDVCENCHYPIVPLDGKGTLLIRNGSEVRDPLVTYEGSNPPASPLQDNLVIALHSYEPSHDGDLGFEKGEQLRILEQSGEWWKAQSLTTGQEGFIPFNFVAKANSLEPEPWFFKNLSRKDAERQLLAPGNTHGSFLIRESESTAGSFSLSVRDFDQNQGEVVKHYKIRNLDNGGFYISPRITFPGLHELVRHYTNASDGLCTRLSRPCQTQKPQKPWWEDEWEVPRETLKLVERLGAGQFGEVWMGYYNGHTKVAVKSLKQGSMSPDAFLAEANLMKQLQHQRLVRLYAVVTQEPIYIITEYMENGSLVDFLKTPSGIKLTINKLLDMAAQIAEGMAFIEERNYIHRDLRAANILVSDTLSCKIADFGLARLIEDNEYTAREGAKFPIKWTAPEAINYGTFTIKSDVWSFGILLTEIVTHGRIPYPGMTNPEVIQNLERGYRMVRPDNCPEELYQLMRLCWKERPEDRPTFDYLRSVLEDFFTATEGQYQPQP
Chain of Palmitoyltransferase ZDHHC3 (Q9NYG2 whole entry): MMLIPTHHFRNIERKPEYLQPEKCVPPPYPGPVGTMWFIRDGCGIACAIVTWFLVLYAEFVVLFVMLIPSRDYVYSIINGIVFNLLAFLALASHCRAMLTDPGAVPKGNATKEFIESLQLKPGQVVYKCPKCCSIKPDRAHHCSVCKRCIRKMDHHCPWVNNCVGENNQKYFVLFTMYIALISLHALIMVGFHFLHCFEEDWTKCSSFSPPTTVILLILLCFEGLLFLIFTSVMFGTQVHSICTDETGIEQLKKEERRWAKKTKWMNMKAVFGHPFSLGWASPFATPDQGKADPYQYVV
Chain of Protein-cysteine N-palmitoyltransferase HHAT (Q5VTY9 whole entry, the tested form may be a part): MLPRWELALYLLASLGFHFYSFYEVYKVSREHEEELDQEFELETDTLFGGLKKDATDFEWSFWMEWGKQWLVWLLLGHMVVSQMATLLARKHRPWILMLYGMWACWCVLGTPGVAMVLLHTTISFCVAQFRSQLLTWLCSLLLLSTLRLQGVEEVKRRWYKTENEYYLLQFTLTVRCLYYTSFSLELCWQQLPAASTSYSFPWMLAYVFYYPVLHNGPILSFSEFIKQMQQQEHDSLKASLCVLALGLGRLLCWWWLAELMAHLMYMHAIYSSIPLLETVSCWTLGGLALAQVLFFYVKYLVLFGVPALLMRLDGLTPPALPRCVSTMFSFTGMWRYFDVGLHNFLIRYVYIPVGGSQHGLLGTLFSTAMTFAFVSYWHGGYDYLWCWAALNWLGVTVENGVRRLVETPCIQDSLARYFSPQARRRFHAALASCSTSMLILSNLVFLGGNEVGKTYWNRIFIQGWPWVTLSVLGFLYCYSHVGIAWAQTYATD
Chain of Serine palmitoyltransferase small subunit B (Q8NFR3 whole entry): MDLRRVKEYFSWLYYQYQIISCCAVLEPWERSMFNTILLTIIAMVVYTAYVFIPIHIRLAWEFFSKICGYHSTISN
Chain of Carnitine O-palmitoyltransferase 2, mitochondrial (P23786 whole entry): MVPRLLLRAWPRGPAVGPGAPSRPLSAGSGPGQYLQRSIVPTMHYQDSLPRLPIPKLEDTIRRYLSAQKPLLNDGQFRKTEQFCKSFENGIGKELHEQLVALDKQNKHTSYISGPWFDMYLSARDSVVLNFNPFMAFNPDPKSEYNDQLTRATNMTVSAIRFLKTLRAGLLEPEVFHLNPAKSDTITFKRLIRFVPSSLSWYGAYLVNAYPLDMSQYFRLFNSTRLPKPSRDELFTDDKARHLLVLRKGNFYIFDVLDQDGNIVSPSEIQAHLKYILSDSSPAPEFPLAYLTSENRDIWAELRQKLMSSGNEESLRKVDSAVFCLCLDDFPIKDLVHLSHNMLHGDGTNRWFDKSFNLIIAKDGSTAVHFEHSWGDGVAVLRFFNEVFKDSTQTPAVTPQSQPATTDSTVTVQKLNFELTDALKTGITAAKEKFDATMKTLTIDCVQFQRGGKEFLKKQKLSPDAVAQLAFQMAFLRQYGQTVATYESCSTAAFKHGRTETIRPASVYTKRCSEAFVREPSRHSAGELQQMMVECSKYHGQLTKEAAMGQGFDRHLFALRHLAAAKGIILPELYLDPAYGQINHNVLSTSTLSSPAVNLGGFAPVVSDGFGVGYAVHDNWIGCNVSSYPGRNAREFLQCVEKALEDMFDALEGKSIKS
Chain of Non-structural protein 4b (F5B4I0 whole entry, canonical isoform): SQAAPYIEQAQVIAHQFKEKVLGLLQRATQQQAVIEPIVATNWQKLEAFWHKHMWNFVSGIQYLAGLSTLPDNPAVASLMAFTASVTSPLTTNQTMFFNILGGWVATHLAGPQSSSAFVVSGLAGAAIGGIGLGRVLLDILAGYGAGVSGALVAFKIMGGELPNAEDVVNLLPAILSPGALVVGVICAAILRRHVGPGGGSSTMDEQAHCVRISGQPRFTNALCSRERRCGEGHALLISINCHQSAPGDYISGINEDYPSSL
Chain of Palmitoyltransferase ZDHHC7 (Q9NXF8 whole entry, canonical isoform): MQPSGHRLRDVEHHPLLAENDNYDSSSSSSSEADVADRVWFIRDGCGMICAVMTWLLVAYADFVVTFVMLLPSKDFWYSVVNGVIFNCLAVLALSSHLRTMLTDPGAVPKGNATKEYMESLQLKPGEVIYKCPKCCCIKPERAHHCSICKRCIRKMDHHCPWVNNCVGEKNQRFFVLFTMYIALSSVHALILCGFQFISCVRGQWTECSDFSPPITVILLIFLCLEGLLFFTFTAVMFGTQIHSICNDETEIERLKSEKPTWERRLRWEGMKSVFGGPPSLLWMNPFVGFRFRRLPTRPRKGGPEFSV

As to `CCCCCCCCCCCCCCC(Br)C(=O)O` (stereo unspecified), in [1], the IC50 stood at 10000 nM.

In experiment [2], `CC#CCOc1ccc(C[C@H](NC(=O)[C@@H](/C=C/CCCCCCC(=O)CCCCCCC)[C@@](O)(CC(C)=O)C(=O)O)C(=O)O)cc1` showed an IC50 of 18.9 nM.

Compound `COc1ccc(CN2CCN(CCCSc3cc(C(C)(C)C)c(O)c(C(C)(C)C)c3)CC2)c(OC)c1OC` yielded an IC50 in experiment [3] of 16800 nM.

On to `COc1cc(C(=O)N2CC[C@H](NC(=O)c3ccccc3OC(F)(F)F)c3c2cnn3C(C)C)cnc1OC`, for which half-maximal inhibition in the experiment on HCC4006 (IC50) required 3.9 nM.

`CCCCCCCCCCCCCCC(Br)C(=O)SCCNC(C)=O` (stereo unspecified): the figures for the IC50 in experiment [4] and in experiment [5] were around 50000 nM and 4400 nM, respectively.

Consider `COc1cccc2c1C(=O)c1c(O)c3c(c(O)c1C2=O)C[C@@](O)(C(=O)CO)C[C@@H]3O[C@H]1C[C@H](N)[C@H](O)[C@H](C)O1` [DOXORUBICIN HYDROCHLORIDE], for which the figures for the IC50 in experiment [6] and in experiment [7] were 250000 nM and above 100000 nM, respectively.

`CC(C)=CCC[C@]1(C)C=Cc2c(O)c3c(c(CC=C(C)C)c2O1)O[C@]12C(=C[C@@H]4C[C@H]1C(C)(C)O[C@@]2(C/C=C(/C)C(=O)O)C4=O)C3=O` [GAMBOGIC ACID] displayed an IC50 in experiment [8] of 2180 nM.

On to `CCC(C)CNCC(=O)N1CCc2sccc2C1COc1cccc(C)c1` (stereo unspecified), for which the Ki in [9] stood at 7400 nM.

As for `C=CC(=O)N1C[C@@H](n2cc(C3CCOCC3)nn2)[C@H](OCc2ccc(C(F)(F)F)cc2)C1`, the IC50 in experiment [10] turned out to be 45 nM.

As for `CCCCCCCC(=O)CCCCCC/C=C/[C@H](C(=O)N[C@@H](Cc1ccc(O)cc1)C(=O)O)[C@@](O)(CC(=O)O)C(=O)O`, it took 22 nM to reach half-maximal inhibition in [11] (IC50).

With `Cn1nc(C(F)(F)F)cc1C(=O)N[C@@H]1CCN(C(=O)c2cc(Cl)c3nccnc3c2)C[C@@H]1c1ccccc1`, it took 11 nM to reach half-maximal inhibition in the experiment on HCC4006 (IC50).

For `CCCCCCCCCCCCCC[C@]1(C(=O)O)CO1`, the inhibition in [12] came to 66%.

For the compound `COc1ccc(Cl)cc1S(=O)(=O)N1CCc2ccc(C(=O)Nc3ccc(C(=O)O)cc3)cc21`, the IC50 in experiment [13] was found to be 21 nM; in experiment [14] it was 1090 nM.

`CCCCCCCCCCCCCCNC(=O)N[C@H](CC(=O)[O-])C[N+](C)(C)C`: the IC50 in experiment [15] was found to be 680 nM. The Ki in experiment [16] was determined as 360 nM.

Consider `C=C(F)C(=O)N1C[C@@H](Nc2ncccn2)[C@H](OCc2ccc(C(F)(F)F)cc2)C1`, for which the half-maximal inhibitory concentration (IC50) in [10] was determined as 11 nM. Further, the Activity with NCI-H226 [17] amounted to 54%; in the experiment with NCI-H226 [18], 68%.
